The data set in a line: recombinant UMI read abundance after kanamycin selection (control-corrected) (log10(CPM+1)); higher = more efficient recombination; extreme values may be limits of the assay; sequences stand for … in AGTGCAGAGAAAATCGGCCAGTTTTCTCTGCCTGCAGTCCGCATGCCGTGGGACCCCTTGGGTTCTAACCTGTTGCCTAGATTTATGCAGCGGACTGCCTTTCTCCCAAAGTGATAAACCGG…AGGTTGGTTTCACT; site = the 11-nt donor. In a few lines:
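Sequenced counts of recombinant UMIs were turned into CPM, averaged across replicates and scaled with control-derived factors. The reported figure is log10(CPM+1). Those UMIs, each 12 nt long, tagged donor and donor-binding-loop pairs on a plasmid with a promoterless kanamycin gene, screened as a pool in Escherichia coli with IPTG (0.07 mM) plus kanamycin or without selection.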
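Also: IS621 bridge recombinase in Escherichia coli cells against a fixed T5 target plasmid.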

“CTAGTATCATGGACCGGTTTTCCCGGTAATCCGTATTTGTG (site CTAGTATCTGT)”: the “recombinant UMI read abundance (log10)” value came out at 0. The figure for “CTAGTCACATGGACCGGTTTTCCCGGTAATCCGTATTTGGG (site CAAGTCACTCC)” is 0.00773. As for “CTAGTCACATGGACCGGTTTTCCCGGTAATCCGTATTTGGG (site CCAGTCACTCC)”, the “recombinant UMI read abundance (log10)” value stood at 0.0093. The figure for “CTAGTCACATGGACCGGTTTTCCCGGTAATCCGTATTTGGG (site CGAGTCACTCC)” is 0.00732; for “CTAGTCACATGGACCGGTTTTCCCGGTAATCCGTATTTGGG (site CTAGTCACTCC)” it is 0.00791; for “CTAGTGCCATGGACCGGTTTTCCCGGTAATCCGTATTTGAC (site CTAGTATCTGT)” it is 0.948. Take “CTAGTGCCATGGACCGGTTTTCCCGGTAATCCGTATTTGAC (site CTAGTGCCTGT)”: the “recombinant UMI read abundance (log10)” value was found to be 0.95. For “CTAGTTTCATGGACCGGTTTTCCCGGTAATCCGTATTTGAC (site CTAGTATCTGT)” the value was 2.19; for “CTAGTTTCATGGACCGGTTTTCCCGGTAATCCGTATTTGAC (site CTAGTCTCTGT)”, 1.74. The figure for “CTAGTTTCATGGACCGGTTTTCCCGGTAATCCGTATTTGAC (site CTAGTGTCTGT)” is 0; for “CTAGTTTCATGGACCGGTTTTCCCGGTAATCCGTATTTGAC (site CTAGTTTCTGT)” it is 2.05; for “CTATAACCATGGACCGGTTTTCCCGGTAATCCGTATTTGGA (site CTATAACCTTC)” it is 0.0031. The figure for “CTATCATCATGGACCGGTTTTCCCGGTAATCCGTATTTGCT (site CAATCATCTAG)” is 0.957; for “CTATCATCATGGACCGGTTTTCCCGGTAATCCGTATTTGCT (site CCATCATCTAG)” it is 0.932. On to “CTATCATCATGGACCGGTTTTCCCGGTAATCCGTATTTGCT (site CGATCATCTAG)”, for which the “recombinant UMI read abundance (log10)” value was found to be 0.

With “CTATCATCATGGACCGGTTTTCCCGGTAATCCGTATTTGCT (site CTATCATCTAG)”, the “recombinant UMI read abundance (log10)” value amounted to 2.06. In the case of “CTATCGACATGGACCGGTTTTCCCGGTAATCCGTATTTGTT (site CAATCGACTAA)”, the “recombinant UMI read abundance (log10)” value amounted to 0.0124. Consider “CTATCGACATGGACCGGTTTTCCCGGTAATCCGTATTTGTT (site CCATCGACTAA)”, for which the “recombinant UMI read abundance (log10)” value was determined as 0.0135.

For the sequence “CTATCGACATGGACCGGTTTTCCCGGTAATCCGTATTTGTT (site CGATCGACTAA)”, the “recombinant UMI read abundance (log10)” value was determined as 0.0084. For “CTATCGACATGGACCGGTTTTCCCGGTAATCCGTATTTGTT (site CTATCGACTAA)” the value was 1.1; for “CTATGACCATGGACCGGTTTTCCCGGTAATCCGTATTTGAG (site CTATGACCTCT)”, 0.00436; for “CTATGATCATGGACCGGTTTTCCCGGTAATCCGTATTTGAC (site CTAGTATCTGT)”, 0. The figure for “CTATGATCATGGACCGGTTTTCCCGGTAATCCGTATTTGAC (site CTATGATCTGT)” is 2.73; for “CTATGCACATGGACCGGTTTTCCCGGTAATCCGTATTTGTA (site ATATGCACTTA)” it is 0.00544. Turning to “CTATGCACATGGACCGGTTTTCCCGGTAATCCGTATTTGTA (site CTATGCACTTA)”, the “recombinant UMI read abundance (log10)” value was found to be 1.82. For “CTATGCACATGGACCGGTTTTCCCGGTAATCCGTATTTGTA (site GTATGCACTTA)” the value was 0.00869; for “CTATGCACATGGACCGGTTTTCCCGGTAATCCGTATTTGTA (site TTATGCACTTA)”, 0.013; for “CTATGTTCATGGACCGGTTTTCCCGGTAATCCGTATTTGTC (site CTATGTTCTGA)”, 2.29. For “CTATTATCATGGACCGGTTTTCCCGGTAATCCGTATTTGAA (site CTATTATCTTT)” the value was 1.79.

In the case of “CTATTATCATGGACCGGTTTTCCCGGTAATCCGTATTTGGC (site CTAGTATCTGT)”, the “recombinant UMI read abundance (log10)” value came to 0. The figure for “CTATTATCATGGACCGGTTTTCCCGGTAATCCGTATTTGGC (site CTATTATCTGC)” is 2.56; for “CTATTTCCATGGACCGGTTTTCCCGGTAATCCGTATTTGCG (site CTATTTCCTCG)” it is 0.264; for “CTCAAATCATGGACCGGTTTTCCCGGTAATCCGTATTTGAA (site CTCAAATCTTT)” it is 0.789. For “CTCAATCCATGGACCGGTTTTCCCGGTAATCCGTATTTGTT (site CGGAATCCTAA)” the value was 0.

For the sequence “CTCAATCCATGGACCGGTTTTCCCGGTAATCCGTATTTGTT (site CTCAATCCTAA)”, the “recombinant UMI read abundance (log10)” value was found to be 1.41.

For “CTCAATGCATGGACCGGTTTTCCCGGTAATCCGTATTTGGG (site CTCAATGCTCC)”, the “recombinant UMI read abundance (log10)” value came to 0.

Consider “CTCAGATCATGGACCGGTTTTCCCGGTAATCCGTATTTGCA (site CTCAGATCTTG)”, for which the “recombinant UMI read abundance (log10)” value was 1.82. For “CTCCAGTCATGGACCGGTTTTCCCGGTAATCCGTATTTGAG (site CTCCAGTCTCT)” the value was 0.842. With “CTCCCAACATGGACCGGTTTTCCCGGTAATCCGTATTTGAG (site CTCCCAACTCT)”, the “recombinant UMI read abundance (log10)” value came out at 0.687.

As to “CTCCCAACATGGACCGGTTTTCCCGGTAATCCGTATTTGAG (site CTCCCCACTCT)”, the “recombinant UMI read abundance (log10)” value came to 0.00702. For “CTCCCAACATGGACCGGTTTTCCCGGTAATCCGTATTTGAG (site CTCCCGACTCT)” the value was 0.0167; for “CTCCCAACATGGACCGGTTTTCCCGGTAATCCGTATTTGAG (site CTCCCTACTCT)”, 0.00578.

“CTCCCTCCATGGACCGGTTTTCCCGGTAATCCGTATTTGAG (site CTCCCTACTCT)”: the “recombinant UMI read abundance (log10)” value is 0.00615.

“CTCCCTCCATGGACCGGTTTTCCCGGTAATCCGTATTTGAG (site CTCCCTCCTCT)”: the “recombinant UMI read abundance (log10)” value was 0.0401. The figure for “CTCCCTCCATGGACCGGTTTTCCCGGTAATCCGTATTTGAG (site CTCCCTGCTCT)” is 0.009; for “CTCCCTCCATGGACCGGTTTTCCCGGTAATCCGTATTTGAG (site CTCCCTTCTCT)” it is 0.0108. For “CTCCTAACATGGACCGGTTTTCCCGGTAATCCGTATTTGGA (site CTACTAACTTC)” the value was 0.00356; for “CTCCTAACATGGACCGGTTTTCCCGGTAATCCGTATTTGGA (site CTCCTAACTTC)”, 0.655; for “CTCCTAACATGGACCGGTTTTCCCGGTAATCCGTATTTGGA (site CTGCTAACTTC)”, 0.0178. The figure for “CTCCTAACATGGACCGGTTTTCCCGGTAATCCGTATTTGGA (site CTTCTAACTTC)” is 0.0149; for “CTCCTTACATGGACCGGTTTTCCCGGTAATCCGTATTTGAG (site CTCCATACTCT)” it is 0; for “CTCCTTACATGGACCGGTTTTCCCGGTAATCCGTATTTGAG (site CTCCCTACTCT)” it is 0.00731. “CTCCTTACATGGACCGGTTTTCCCGGTAATCCGTATTTGAG (site CTCCGTACTCT)”: the “recombinant UMI read abundance (log10)” value amounted to 0. The figure for “CTCCTTACATGGACCGGTTTTCCCGGTAATCCGTATTTGAG (site CTCCTTACTCT)” is 0.201; for “CTCGACACATGGACCGGTTTTCCCGGTAATCCGTATTTGGA (site CTCGACACTTC)” it is 0.942; for “CTCGCTACATGGACCGGTTTTCCCGGTAATCCGTATTTGAG (site CTCACTACTCT)” it is 0.085. “CTCGCTACATGGACCGGTTTTCCCGGTAATCCGTATTTGAG (site CTCCCTACTCT)”: the “recombinant UMI read abundance (log10)” value is 0.00726.

On to “CTCGCTACATGGACCGGTTTTCCCGGTAATCCGTATTTGAG (site CTCGCTACTCT)”, for which the “recombinant UMI read abundance (log10)” value is 1.03.

Turning to “CTCGCTACATGGACCGGTTTTCCCGGTAATCCGTATTTGAG (site CTCTCTACTCT)”, the “recombinant UMI read abundance (log10)” value stood at 0.139. The figure for “CTCGGCCCATGGACCGGTTTTCCCGGTAATCCGTATTTGTT (site CACGGCCCTAA)” is 0.0311; for “CTCGGCCCATGGACCGGTTTTCCCGGTAATCCGTATTTGTT (site CCCGGCCCTAA)” it is 0.0244; for “CTCGGCCCATGGACCGGTTTTCCCGGTAATCCGTATTTGTT (site CGCGGCCCTAA)” it is 0.0316. For “CTCGGCCCATGGACCGGTTTTCCCGGTAATCCGTATTTGTT (site CTCGGCCCTAA)” the value was 0.0107; for “CTCGGCGCATGGACCGGTTTTCCCGGTAATCCGTATTTGCC (site CTCGGCGCTGG)”, 2.12; for “CTCGGGCCATGGACCGGTTTTCCCGGTAATCCGTATTTGTG (site CTCGGGCCTCA)”, 0. For “CTCGTATCATGGACCGGTTTTCCCGGTAATCCGTATTTGTC (site CTAGTATCTGT)” the value was 0; for “CTCGTATCATGGACCGGTTTTCCCGGTAATCCGTATTTGTC (site CTCGTATCTGA)”, 2.69. On to “CTCGTCCCATGGACCGGTTTTCCCGGTAATCCGTATTTGTA (site CTCGTCCCTTA)”, for which the “recombinant UMI read abundance (log10)” value was found to be 1.66.

The values are drawn from the supplement of paper PMC11208160.
